This note sets out measurements from patent US20260078130A1, “NAMPT MODULATORS, PREPARATIONS, AND USES THEREOF” (SIRONAX LTD., priority 2022, published 2026).

Where two headings read alike, the source gives them in different places.

The target in assay [1] is T1, human enzyme NAMPT (full length) (Homo sapiens, UniProt P43490).
T1 construct: human enzyme NAMPT (full length)
The assay can be described thus: NMN fluorescence biochemical assay (stimulation of NMN synthesis by NAMPT). The note with it: for EC50: concentration giving half-maximal activation, read-out: Enzymatic EC50; for Enzymatic Emax: fold change of maximal activation compared to DMSO. A digest of the protocol: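 Full-length human NAMPT (100 nM) was preincubated 15 min at 37 °C with compound in 50 mM Tris-HCl pH 7.5, 10 mM MgCl2, 2 mM DTT, then reacted 1 h at 37 °C with 50 μM NAM, 100 μM PRPP, 4 mM ATP (stated solution concentrations). NMN was derivatised with acetophenone/KOH then formic acid and read at Ex/Em 382/445 nm; EC50 and Emax (fold over DMSO) reported.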

The test system of assay [2] is endogenous NAMPT in U2OS cells. The assay can be described thus: Cellular NAD+ modulation assay (NAD/NADH-Glo, U2OS cells). Format: cell-based. The note with it: Homo sapiens; for maximal fold induction: read-out: Cellular Emax. A digest of the protocol:
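Endogenous NAMPT stimulation in U2OS cells treated with compound dilution series for 24 h at 37 °C. Cells lysed with DTAB base, acid-treated 15 min at 60 °C, neutralized, NAD+ read by NAD/NADH-Glo luminescence after 40 min at room temperature. EC50 and Emax (fold over DMSO) derived.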

[3] abbreviates: NMN fluorescence assay, purified human NAMPT 100 nM.
Setting [4] is: 24 hours incubation, cellular NAD+.
Where [5] appears, read: NMN synthesis by purified human NAMPT (100 nM).
Setting [6] is: 24 hours incubation with compound.

T1 sequence (P43490 whole entry): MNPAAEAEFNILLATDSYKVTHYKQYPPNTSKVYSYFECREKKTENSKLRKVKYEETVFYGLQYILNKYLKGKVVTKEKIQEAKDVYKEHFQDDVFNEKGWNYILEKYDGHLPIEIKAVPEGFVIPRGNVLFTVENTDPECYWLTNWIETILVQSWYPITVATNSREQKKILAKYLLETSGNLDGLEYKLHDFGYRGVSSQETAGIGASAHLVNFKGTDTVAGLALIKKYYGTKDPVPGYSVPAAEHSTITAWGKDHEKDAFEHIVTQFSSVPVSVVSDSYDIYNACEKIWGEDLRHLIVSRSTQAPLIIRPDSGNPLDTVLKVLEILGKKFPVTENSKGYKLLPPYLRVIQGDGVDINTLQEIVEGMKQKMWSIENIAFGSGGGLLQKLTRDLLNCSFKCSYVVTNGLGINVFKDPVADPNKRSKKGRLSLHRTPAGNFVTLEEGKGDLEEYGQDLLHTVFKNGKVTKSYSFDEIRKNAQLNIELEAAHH

For `O=C1c2ccccc2C(Cc2nn(C3CNC3)cc2Cl)N1Cc1ccc2[nH]nnc2c1` (stereo not shown) [Compound 413, 2-((1H-benzo[d][1,2,3]triazol-5-yl)methyl)-3-((1-(azetidin-3-yl)-4-chloro-1H-pyrazol-3-yl)methyl)isoindolin-1-one], in assay [1] (setting [3]), the EC50 – broadly, the concentration giving half of the maximal effect – is below 500 nM. Moreover, the “Enzymatic Emax” value in assay [1] is “B (3≥B>2)”. In assay [2] (setting [4]), the EC50 was 500 to 5000 nM and the maximal fold induction is above 1.5.
Consider `O=C1c2ccccc2C(Cc2nn(C3CC4(COC4)C3)cc2Cl)N1Cc1ccc2[nH]nnc2c1` (stereo not shown) [Compound 412, 2-((1H-benzo[d][1,2,3]triazol-5-yl)methyl)-3-((4-chloro-1-(2-oxaspiro[3.3]heptan-6-yl)-1H-pyrazol-3-yl)methyl)isoindolin-1-one], for which, in assay [1] (setting [3]), the EC50 was below 500 nM. Also, the “Enzymatic Emax” value in assay [1] is “B (3≥B>2)”. For the same compound, in assay [2] (setting [4]), the EC50 was 5000 to 50000 nM and the maximal fold induction lay in the range of 1.2 to 1.5.
Take `N#Cc1cccc(F)c1CC1c2ccccc2C(=O)N1Cc1ccc2[nH]c(=O)oc2c1` (stereo not shown) [Compound 170, 3-fluoro-2-((3-oxo-2-((2-oxo-2,3-dihydrobenzo[d]oxazol-6-yl)methyl)isoindolin-1-yl)methyl)benzonitrile]: the EC50 in assay [1] (setting [5]) is below 500 nM. Also, the “Enzymatic Emax” value in assay [1] is “A (A>3)”. In addition, in assay [2] (setting [6]), the EC50 was below 500 nM and the maximal fold induction was above 1.5.
Consider `Cn1nc(C2CC2)c(Cl)c1CC1c2ccccc2C(=O)N1Cc1ccc2[nH]nnc2c1` (stereo not shown) [Compound 399, 2-((1H-benzo[d][1,2,3]triazol-5-yl)methyl)-3-((4-chloro-3-cyclopropyl-1-methyl-1H-pyrazol-5-yl)methyl)isoindolin-1-one], for which, in assay [1] (setting [3]), the EC50 is below 500 nM. For the same compound, the “Enzymatic Emax” value in assay [1] is given as “B (3≥B>2)”. In assay [2] (setting [4]), the EC50 was below 500 nM and the maximal fold induction is above 1.5.
As to `O=C1c2ccccc2C(C2CC2)N1Cc1ccc2[nH]c(=O)oc2c1` (stereo not shown) [Compound 72, 6-((1-cyclopropyl-3-oxoisoindolin-2-yl)methyl)benzo[d]oxazol-2(3H)-one], the EC50 in assay [1] (setting [5]) is at least 5000 nM. Further, the “Enzymatic Emax” value in assay [1] was “A (A>3)”. Also, in assay [2] (setting [6]), the EC50 is 500 to 5000 nM and the maximal fold induction is above 1.5.
With `COc1ccc(CN2C(=O)c3ccccc3C2Cc2c(Cl)cnn2C)nc1F` (stereo not shown) [Compound 543, 3-((4-chloro-1-methyl-1H-pyrazol-5-yl)methyl)-2-((6-fluoro-5-methoxypyridin-2-yl)methyl)isoindolin-1-one], the EC50 in assay [1] (setting [3]) fell in the range of 500 to 5000 nM. Besides, the “Enzymatic Emax” value in assay [1] is recorded as “B (3≥B>2)”. For the same compound, in assay [2] (setting [4]), the EC50 lay within 500 to 5000 nM and the maximal fold induction is above 1.5.
Take `Cc1cncc(C#N)c1CC1c2ccccc2C(=O)N1Cc1ccc2[nH]nnc2c1` (stereo not shown) [Compound 364, 4-((2-((1H-benzo[d][1,2,3]triazol-5-yl)methyl)-3-oxoisoindolin-1-yl)methyl)-5-methylnicotinonitrile]: the EC50 in assay [1] (setting [3]) and in assay [2] (setting [4]) was below 500 nM each time. In addition, the “Enzymatic Emax” value in assay [1] is reported as “B (3≥B>2)”. In addition, the maximal fold induction in assay [2] (setting [4]) was above 1.5.
On to `Cn1cnc(Cl)c1CC1c2ccccc2C(=O)N1CC1CC2(CNC(=O)O2)C1` (stereo not shown) [Compound 468, 2-((1-((4-chloro-1-methyl-1H-imidazol-5-yl)methyl)-3-oxoisoindolin-2-yl)methyl)-5-oxa-7-azaspiro[3.4]octan-6-one], for which the EC50 in assay [1] (setting [3]) lay within 500 to 5000 nM. In assay [1], the “Enzymatic Emax” value is given as “B (3≥B>2)”. In assay [2] (setting [4]), the EC50 is 500 to 5000 nM and the maximal fold induction is above 1.5.
Turning to `Cn1ncc(Cl)c1CC1c2cc(OC3CNC3)ccc2C(=O)N1Cc1ccc2[nH]nnc2c1` (stereo not shown) [Compound 437, 2-((1H-benzo[d][1,2,3]triazol-5-yl)methyl)-5-(azetidin-3-yloxy)-3-((4-chloro-1-methyl-1H-pyrazol-5-yl)methyl)isoindolin-1-one], in assay [1] (setting [3]), the EC50 is below 500 nM. Further, the “Enzymatic Emax” value in assay [1] is “A (A>3)”. In assay [2] (setting [4]), the EC50 lay within 5000 to 50000 nM and the maximal fold induction is above 1.5.
As for `N#Cc1ccc(CC2c3ccccc3C(=O)N2Cc2ccc3[nH]c(=O)oc3c2)cc1` (stereo not shown) [Compound 148, 4-((3-oxo-2-((2-oxo-2,3-dihydrobenzo[d]oxazol-6-yl)methyl)isoindolin-1-yl)methyl) benzonitrile], the EC50 in assay [1] (setting [5]) was in the range of 500 to 5000 nM. Moreover, the “Enzymatic Emax” value in assay [1] is “B (3≥B>2)”. In assay [2] (setting [6]), the EC50 was in the range of 500 to 5000 nM and the maximal fold induction is above 1.5.
`CCCn1c2ccccc2c(=O)n1Cc1ccc(O)cc1` [Compound 25, 2-(4-hydroxybenzyl)-1-propyl-1,2-dihydro-3H-indazol-3-one]: the EC50 in assay [1] (setting [5]) was at least 5000 nM. Besides, the “Enzymatic Emax” value in assay [1] is on record as “A (A>3)”. Also, in assay [2] (setting [6]), the EC50 lay within 5000 to 50000 nM and the maximal fold induction is above 1.5.
Consider `Cn1ncc(Cl)c1CC1c2ccccc2C(=O)N1Cc1c[nH]nn1` (stereo not shown) [Compound 637, 2-((1H-1,2,3-triazol-4-yl)methyl)-3-((4-chloro-1-methyl-1H-pyrazol-5-yl)methyl)isoindolin-1-one], for which the EC50 in assay [1] (setting [3]) is at least 5000 nM; in assay [2] (setting [4]), below 500 nM. In addition, the “Enzymatic Emax” value in assay [1] is given as “B (3≥B>2)”. Besides, the maximal fold induction in assay [2] (setting [4]) fell in the range of 1.2 to 1.5.
In the case of `O=C1c2ccccc2C(Cc2ncccc2Br)N1Cc1cc2oc(=O)[nH]c2cc1F` (stereo not shown) [Compound 223, 6-((1-((3-bromopyridin-2-yl)methyl)-3-oxoisoindolin-2-yl)methyl)-5-fluorobenzo[d]oxazol-2(3H)-one], the EC50 in assay [1] (setting [5]) was below 500 nM; in assay [2] (setting [6]), 500 to 5000 nM. In addition, in assay [1], the “Enzymatic Emax” value is listed as “A (A>3)”. The maximal fold induction in assay [2] (setting [6]) was above 1.5.
Regarding `N#Cc1ccccc1CC1c2ccccc2C(=O)N1Cc1ccc2[nH]c(=O)oc2c1` (stereo not shown) [Compound 147, 2-((3-oxo-2-((2-oxo-2,3-dihydrobenzo[d]oxazol-6-yl)methyl)isoindolin-1-yl)methyl) benzonitrile], the EC50 in assay [1] (setting [5]) is below 500 nM. The “Enzymatic Emax” value in assay [1] is given as “A (A>3)”. For the same compound, in assay [2] (setting [6]), the EC50 was below 500 nM and the maximal fold induction is above 1.5.
`CC(=O)Nc1ccc(CN2C(=O)c3ccccc3C2C)cc1` (stereo not shown) [Compound 82, N-(4-((1-methyl-3-oxoisoindolin-2-yl)methyl)phenyl)acetamide]: the EC50 in assay [1] (setting [5]) is at least 5000 nM. For the same compound, in assay [1], the “Enzymatic Emax” value is “B (3≥B>2)”. Also, in assay [2] (setting [6]), the EC50 lay within 500 to 5000 nM and the maximal fold induction fell in the range of 1.2 to 1.5.
As for `CC1c2cc(-c3cnco3)ccc2C(=O)N1Cc1ccc2[nH]c(=O)oc2c1` (single isomer, unassigned) [Compound 162], the EC50 in assay [1] (setting [5]) lay in the range of 500 to 5000 nM. Moreover, the “Enzymatic Emax” value in assay [1] is “B (3≥B>2)”. Besides, in assay [2] (setting [6]), the EC50 lay within 5000 to 50000 nM and the maximal fold induction is above 1.5.
For `O=C1c2ccc(N3CCCC3)cc2CN1Cc1ccc(O)cc1` [Compound 298, 2-(4-hydroxybenzyl)-5-(pyrrolidin-1-yl)isoindolin-1-one], the EC50 in assay [1] (setting [5]) lay within 500 to 5000 nM. The “Enzymatic Emax” value in assay [1] is “C (2≥C)”. Further, in assay [2] (setting [6]), the EC50 is 500 to 5000 nM and the maximal fold induction lay in the range of 1.2 to 1.5.
As to `CC1c2cc(NC3CC4(COC4)C3)ccc2C(=O)N1Cc1ccc2[nH]c(=O)oc2c1` (stereo not shown) [Compound 149, 6-((5-((2-oxaspiro[3.3]heptan-6-yl)amino)-3-methyl-1-oxoisoindolin-2-yl)methyl)benzo[d]oxazol-2(3H)-one], the EC50 in assay [1] (setting [5]) was 500 to 5000 nM. For the same compound, the “Enzymatic Emax” value in assay [1] is reported as “B (3≥B>2)”. In addition, in assay [2] (setting [6]), the EC50 was 500 to 5000 nM and the maximal fold induction was above 1.5.
With `COc1ccc(CN2C(=O)c3ccccc3C2Cc2c(Cl)cnn2C)cc1F` (stereo not shown) [Compound 517, 3-((4-chloro-1-methyl-1H-pyrazol-5-yl)methyl)-2-(3-fluoro-4-methoxybenzyl)isoindolin-1-one], the EC50 in assay [1] (setting [3]) is 500 to 5000 nM; in assay [2] (setting [4]), below 500 nM. Also, the “Enzymatic Emax” value in assay [1] is recorded as “B (3≥B>2)”. In addition, in assay [2] (setting [4]), the maximal fold induction lay in the range of 1.2 to 1.5.
On to `O=C1c2ccccc2C(Cc2ncccc2Br)N1Cc1ccc2[nH]nnc2c1` (stereo not shown) [Compound 331, 2-((1H-benzo[d][1,2,3]triazol-5-yl)methyl)-3-((3-bromopyridin-2-yl)methyl)isoindolin-1-one], for which, in assay [1] (setting [3]), the EC50 is below 500 nM. In addition, in assay [1], the “Enzymatic Emax” value is recorded as “A (A>3)”. For the same compound, in assay [2] (setting [4]), the EC50 was below 500 nM and the maximal fold induction is above 1.5.
Turning to `Cc1nn(C)c(CC2c3ccccc3C(=O)N2CC2CC3(CNC(=O)O3)C2)c1Cl` (stereo not shown) [Compound 527, 2-((1-((4-chloro-1,3-dimethyl-1H-pyrazol-5-yl)methyl)-3-oxoisoindolin-2-yl)methyl)-5-oxa-7-azaspiro[3.4]octan-6-one], the EC50 in assay [1] (setting [3]) is below 500 nM. Also, the “Enzymatic Emax” value in assay [1] was “B (3≥B>2)”. Moreover, in assay [2] (setting [4]), the EC50 is below 500 nM and the maximal fold induction is above 1.5.
For the compound `O=C1c2ccc(N3CCOCC3)cc2CN1Cc1ccc2[nH]c(=O)oc2c1` [Compound 47, 6-((5-morpholino-1-oxoisoindolin-2-yl)methyl)benzo[d]oxazol-2(3H)-one], the EC50 in assay [1] (setting [5]) is at least 5000 nM; in assay [2] (setting [6]) it was 5000 to 50000 nM. The “Enzymatic Emax” value in assay [1] was “B (3≥B>2)”. For the same compound, the maximal fold induction in assay [2] (setting [6]) is above 1.5.
